“Also recorded” adds a separate entry of the source. Non-standard residues stand in square brackets, D forms with d. Residues, ends and D or L forms follow the SMILES beside them. ξ: configuration not given here. *: point of attachment. Ile(3ξ) = CCC(C)[C@H](N)C(=O)O; Cbz = O=C(OCc1ccccc1)*
How the values were obtained:
all SUMO isoforms = details: reference (7), cited from earlier work
SUMO-3 = SUMO-3 (Homo sapiens, UniProt P55854); assay: NMR (HSQC) chemical shift perturbation binding to SUMO-3; details: for chemical shift perturbation / binding to SUMO-3: HSQC, SUMO:ligand 1:3 or 1:10
Experimental: NMR studies. All NMR samples contained 10 mM phosphate buffer (pH 7.0) in 90% H2O/10% D2O. NMR spectra were acquired at 25° C. on a Bruker […] NMR spectrometer. All chemicals were dissolved in DMSO. Heteronuclear Single Quantum Coherence (HSQC) spectra were acquired at SUMO:compound ratios of 1:3 or 1:10 for the top scored compounds from virtual ligand screening. Both SUMO-1 and SUMO-2 were examined for their interactions with the compounds. The HSQC spectra were acquired for the protein alone, the protein with addition of 2% DMSO, and the protein in complex with a compound and 2% DMSO. The dissociation constant Kd was estimated by titrating the compound to SUMO-2, followed by recording HSQC spectra at protein:compound ratios of 1:1, 1:2, 1:3, 1:4, 1:5, 1:6, 1:7 and 1:20.
Interactions of the compounds shown in FIG. 4 with SUMO-1 and SUMO-3 were verified by NMR chemical shift perturbation analysis. These compounds generated negligible chemical shift perturbations (CSP) on SUMO-1, but much larger and specific chemical shift perturbations on SUMO-3 (FIGS. 5A and 6). […] Chemical shift perturbation was used to estimate the binding affinity of the representative compound, 333751, to SUMO-3 (20). […] This is not surprising given the much smaller size of the compound than the 10 amino acid residue SIM peptide. The SIM-binding groove on SUMO is very shallow and lacks a deep pocket (8). Since there is a lack of high affinity ligands to bind shallow surface pockets of proteins, it is unlikely that a high affinity small molecule ligand for the SIM binding surface of SUMO can be found.

[1] = molecular target: interaction between SIM and SUMO-1 (Homo sapiens, UniProt P63165); assay: SIM pull-down (ELISA) competition, SUMO-1 monomer; format: binding
Experimental: (§1) Purification of GST-WT-SIM and GST-SC-SIM. GST-tagged wild-type (GST-WT-SIM) or scrambled SIM sequence (GST-SC-SIM) was subcloned into the pGex4T-S expression vector (Amersham) and over-expressed as an N-terminal GST fusion protein in Escherichia coli strain BL21 (DE3) (Invitrogen) at 37° C. in LB media. Once the OD A595 nm reached 0.6, isopropyl 1-thio-[…] (IPTG; 1 mM) was added to the media and the cells were grown for an additional 4 h at 37° C. […]
(§2) SIM pull-down. […] The plate was read at 450 nm by an ELISA reader after the reaction was stopped by addition of phosphoric acid. Quantifications of all SIM pull-downs were scaled by measurement of GST-WT-SIM pull-down (100%) and GST-SCSIM pull-down (0%). […]
(§3) The SIM and control peptides were used in pull-down assays to determine the inhibitory effects of the conjugation of inhibitor to AuNPs. […] The amount of SUMO pulled down by the SIM peptide was detected by enzyme-linked immunosorbent assay (ELISA) in an EIA microtiter plate. […] Based on the concentrations of SUMO chains and the experimental design, it was determined that the IC50 value is likely larger than the average Kd value of the complex between AuNP and SUMO chains.

[2] = molecular target: interaction between SIM and SUMO-3 (Homo sapiens, UniProt P55854); assay: SIM pull-down (ELISA) competition, SUMO-3 monomer; format: binding
Experimental: as §1, §2, §3

[3] = molecular target: T1, interaction between poly-SUMO-3 chain and the tandem-SIM peptide (Homo sapiens, UniProt P55854); assay: SIM pull-down (ELISA) competition, poly-SUMO-3 chains; format: binding
T1 construct: made in house
Experimental: Poly-SUMO chain formation. Poly-SUMO chains were synthesized by an in vitro SUMOylation reaction (4.375 μM GST-SUMO-3 and His-SUMO-3, 40 nM Ubc9 and E1, and 5 mM ATP in a 100 μl reaction). The reaction was carried out at 37° C. for 4 h and then diluted to 1 mL with phosphate buffered saline (PBS). Poly-SUMO chains were first separated from the His-SUMO-3 monomer by glutathione affinity chromatography. The eluted poly-SUMO chains were subsequently separated from the GST-SUMO-3 monomer by Ni-NTA chromatography. The eluted poly-SUMO chains were dialyzed and concentrated.
Purification of GST-WT-SIM and GST-SC-SIM. GST-tagged wild-type (GST-WT-SIM) or scrambled SIM sequence (GST-SC-SIM) was subcloned into the pGex4T-S expression vector (Amersham) and over-expressed as an N-terminal GST fusion protein in Escherichia coli strain BL21 (DE3) (Invitrogen) at 37° C. in LB media. […]
as §2
The SIM and control peptides were used in pull-down assays to determine the inhibitory effects of the conjugation of inhibitor to AuNPs. […] The amount of SUMO pulled down by the SIM peptide was detected by enzyme-linked immunosorbent assay (ELISA) in an EIA microtiter plate. […]

Sequence of SUMO-3 (P55854 1-92 limits assumed): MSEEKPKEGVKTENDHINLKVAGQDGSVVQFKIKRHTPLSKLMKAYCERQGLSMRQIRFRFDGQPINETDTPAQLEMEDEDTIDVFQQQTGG
Sequence of interaction between SIM and SUMO-1 (P63165 1-97 limits assumed): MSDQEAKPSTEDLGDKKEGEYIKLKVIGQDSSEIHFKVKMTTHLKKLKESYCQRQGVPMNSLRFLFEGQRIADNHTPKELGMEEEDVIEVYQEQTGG
T1 sequence (P55854 1-92 limits assumed): as the sequence (P55854 1-92 limits assumed) above
T1 sequence (P55854 1-92 limits assumed): as above
Sequence of interaction between SIM and SUMO-3 (P55854 1-92 limits assumed): as above

| inhibition of SUMO-1 monomer / SIM peptide interaction [1] | inhibition of SUMO-3 monomer / SIM peptide interaction [2] | affinity lower than that between the PIASx SIM and SUMO-2 (SUMO-3; compared with PIASx SIM peptide) | Kd (SUMO-3; estimated from chemical shift change vs ligand:protein ratio) [µM] | Compound | higher affinity for all SUMO isoforms than other characterized SIM sequences (all SUMO isoforms) [fold] | Kd (all SUMO isoforms; read-out: dissociation constants for all SUMO isoforms) [µM] | chemical shift perturbation / binding to SUMO-3 (SUMO-3) | inhibition of poly-SUMO-3 chain / SIM interaction [3] |
| --- | --- | --- | --- | --- | --- | --- | --- | --- |
|  |  |  |  | KVDVIDLTIE [PIASx SIM] | ~10 | 4 to 8 |  |  |
| not significantly inhibitory | not significantly inhibitory |  |  | CCC(C)[C@H](NC(=O)/C=C/c1ccc(NC(=O)CCS)cc1)C(=O)N[C@@H](CC(C)C)C(=O)O (stereo partly drawn) [derivative 2] |  |  | induced chemical shift perturbation on the same surface of SUMO-3 and to a similar extent | nor did it inhibit poly-SUMO chain and SIM interactions |
|  |  | more than 200 fold | 1200 ± 400 | CCC(C)[C@H](NC(=O)OCc1ccccc1)C(=O)N[C@@H](CC(C)C)C(=O)O (stereo partly drawn) [compound 333751] (Cbz-[Ile(3ξ)]-Leu-OH) |  |  | among the strongest; also recorded: induced chemical shift perturbation on the same surface of SUMO-3 and to a similar extent |  |

Reference: US8796202B2, “Multi-valent poly-Ubl chain inhibitors and methods of use” (City of Hope, priority 2011, dated 2014)
